From patent publication US20230190616A1, “COMPOUNDS USEFUL FOR THE TREATMENT AND/OR CARE OF THE SKIN, HAIR, NAILS AND/OR MUCOUS MEMBRANES” (LUBRIZOL ADVANCED MATERIALS, INC., priority 2018, published 2023)

How the values were obtained:
[1] = test system: human neuroblastoma cell line (SH-SY5Y); experiment: Inhibition of noradrenaline (NA) release from human neuroblastoma cells, ELISA; format: cell-based; settings: SH-SY5Y, respect to basal control, mean of 3 assays
Text: Inhibition of noradrenaline release from human neuroblastoma cells.
Release of neurotransmitters by exocytosis in neuromuscular junctions from peripheral neurons to skeletal muscle allows muscle contraction. Face muscles are subject to said contraction and facial muscle contraction is more frequent around eyes, mouth and forehead than elsewhere in the face. With age, continuous release of neurotransmitters into neuromuscular junctions and decrease of elasticity contribute to the increase of facial wrinkles and permanent expression lines. Compounds able to block or decrease exocytosis on neuromuscular junction sites are thus good candidates for the cosmetic treatment of unaesthetic wrinkles. In vitro induction of the neurotransmitter Noradrenaline (NA) release in a human neuroblastoma cell line (SH-SY5Y) is considered a direct and reliable method for exocytosis measurement. The aim of this study is to evaluate the efficacy of the peptides of the invention on the inhibition of neuronal exocytosis by means of measuring the levels of NA release in SH-SY5Y cells by Enzyme-linked Immunosorbent Assay (ELISA).
SH-SY5Y (ECACC) cells are seeded in 12-well plates at a density of 1×10^6 cells/well. After a 6-day culture, medium is removed from wells and cells are treated for 60 minutes with the peptides of the invention dissolved in Hank’s Balanced Salt Solution (HBSS, Life Technologies) at 1 and 2.5 mg/ml. Cells treated with HBSS alone are used as a basal control. To mobilize NA vesicles, supernatants are removed and 100 nM Tetradecanoylphorbol-13-acetate (TPA, Sigma) is dissolved in the presence of test items in HBSS or dissolved in HBSS alone in the case of the basal control. After this, solutions with TPA are removed and NA release is induced by the addition of 10 µM lonomycin (Epica) with 100 nM TPA dissolved in the presence of test items in HBSS or dissolved in HBSS alone in the case of the basal control. Afterwards, the medium in the wells, containing released NA, is collected and centrifuged. Supernatants obtained are used for quantification of NA by ELISA with noradrenalin ELISA kit (IBL International) following manufacturer’s instructions. In brief, direct sandwich ELISA is performed with a plate pre-coated with an anti-NA antibody. The color obtained after substrate addition is directly proportional to the amount of NA present in each condition tested. Absorbance is read in a microplate absorbance reader (Clariostar™, BMG) at 405 nm. The percentage of NA release for each condition is calculated respect to basal control.

[2] = test system: Musclebind like protein 1 (MBNL1) in human skeletal muscle cells (hSkMc); experiment: Quantification of Musclebind like protein 1 in human skeletal muscle cells by TR-FRET; format: cell-based; settings: 0.5 mg/ml, hSkMc; for % MBNL1 vs basal level: 48 hours, normalized to total protein
Protocol: In vitro quantification of Musclebind like protein 1 in human skeletal muscle cells by Time resolved fluorescence resonance energy transfer.
MBNL1 induction by the peptides of the invention is evaluated by a Time resolved fluorescence resonance energy transfer (TR-FRET) assay. The aim of this study is to investigate the capacity of peptide candidates to increase MBNL-1 in human skeletal muscle cells (hSkMc).
hSkMc (Innoprot) are seeded in 12-well plates at a density of 1.5×10^4 cells/well in Skeletal Muscle Cell Growth Medium (Promocell). After 72 hours incubation, medium is removed and replaced with Skeletal Muscle Cell Differentiation Medium (Promocell). 48 hours after beginning cell differentiation, fresh differentiation medium with 0.5 mg/ml of test items is added. Treatment is continued for 48 hours and non-treated cells are used as basal control. After 48 hours of treatment, cell medium is removed and cell lysis buffer is added to wells. Immediately, plates are kept at -80° C. in order to improve protein extraction during the defrosting process. After 72 hours, cells are lysed by shaking the plates in an orbital rotor at room temperature for 45 minutes. Next, cell lysates are collected and assayed to quantify the level of MBNL-1 protein and total protein concentration.
MBNL-1 protein levels measurement is performed with Human MBNL1 Assay Kit (Cisbio) according to the manufacturer’s protocol. Briefly, the kit is used to perform a TR-FRET for MBNL1 quantification. The protein is detected with the antibodies provided in the kit and quantified by a fluorescence measurement. The quantification is carried out by using a microplate reader (ClarioStar™™™, BMG) set to 665 nm and 620 nm.
Total protein concentration of cell lysate is determined by using Pierce BCA Protein Assay Kit (Thermo Scientific) according to manufacturer’s protocol. In brief, after adding Working Reagent to the samples and the standards, the samples are incubated. Afterwards, color change is measured with an absorbance microplate reader (Clariostar™, BMG) at 562 nm. The total protein amount is used to normalize the level of MBNL1 protein concentration obtained by the TR-FRET test in the samples.

Ac-L-Arg-L-Arg-L-Gln-D-Met-L-Glu-L-Glu-NH2 [PEP-23]
% Released NA ([1]; 1 mg/ml): 78.9% | % Released NA ([1]; 2.5 mg/ml): 52.8% | % MBNL1 vs basal level [2]: 142.3% | MBNL1 levels compared to the basal control and to Argireline (in words) [2]: increase MBNL1 levels

Ac-L-Arg-L-Arg-D-Gln-L-Met-L-Glu-L-Glu-NH2 [PEP-22]
% Released NA ([1]; 1 mg/ml): 58.9% | % Released NA ([1]; 2.5 mg/ml): 49.0% | % MBNL1 vs basal level [2]: 141.4% | MBNL1 levels compared to the basal control and to Argireline (in words) [2]: increase MBNL1 levels
